# Patent US7192981B2, “3,4-dihydroxyhydrocinnamic acid derivative” (Bionutrigen Co., Ltd., priority 2005, dated 2007)
# Tests used:
# [1] = Body weight and gross liver observation in DHH105-treated mice; format: in vivo, mouse
# Experimental: First, the effect of DHH105 on the non-fasting blood glucose level in ob/ob mice, an animal model of type 2 diabetes, was examined in vivo. […] DHH105 was dissolved in DMSO and emulsified in olive oil (1:50 v/v). DHH105, at a dose of 150 mg/kg body weight (b.w.) in 100 μl, was injected intraperitoneally (i.p.) every day into diabetic ob/ob mice (blood glucose level>230 mg/dl) and STZ-treated diabetic C57BL/6 mice (blood glucose level>300 mg/dl). Control mice received the same amount of olive oil without DHH105. Blood glucose levels were measured with a glucometer (One Touch Ultra, Lifescan, Milpitas, Calif.) every morning between 9:00–10:00 a.m. just before injection of DHH105.
# [2] = system: isolated rat epididymal adipocytes; assay: Glucose transport assay (2-DOG uptake); format: cell-based
# Akt/PKB = Akt/PKB phosphorylation in adipocytes, western blot; format: cell-based, rat; details: 500 μM, 4 h
# Experimental: Proteins were separated by 10% SDS-PAGE and transferred to a polyvinyl difluoride membrane (Amersham Pharmacia Biotech). After transfer, the membranes were blocked with 5% skim milk in Tris-buffered saline with Tween 20 (TBST; 0.05% Tween 20, 200 mM Tris-HCl, 500 mM NaCl, pH 7.5) for 1 h at room temperature. The membranes were incubated with anti-IR-β, anti-IRS-1, anti-phosphotyrosine, or anti-p85 PI3-kinase (Upstate Biotech); anti-Akt/PKB or anti-phospho-Akt/PKB (Cell Signalling Technology, Beverly, Mass.); anti-GLUT4 (Santa Cruz Biotechnology Inc., Santa Cruz, Calif.); or anti-β actin (Sigma) antibody in 5% bovine serum albumin in TBST for 1 h at room temperature or overnight at 4° C. After washing, the membranes were incubated with secondary antibodies labeled with horseradish peroxidase (HRP) in 5% skim milk in TBST for 1 h. The membranes were washed and the immunoreactive proteins were detected with an enhanced chemoluminescence western blot detection kit (Amersham Pharmacia Biotech).
# insulin receptor = target: T1, insulin receptor (Rattus norvegicus, UniProt P15127); assay: Insulin binding assay ([125I]-insulin binding to adipocytes); details: [125I]-insulin 0.1 ng/ml, 2 h
# T1 construct: endogenous in cells; host or cells: isolated primary adipocytes (rat)
# T1 sequence (P15127 27-759 limits assumed): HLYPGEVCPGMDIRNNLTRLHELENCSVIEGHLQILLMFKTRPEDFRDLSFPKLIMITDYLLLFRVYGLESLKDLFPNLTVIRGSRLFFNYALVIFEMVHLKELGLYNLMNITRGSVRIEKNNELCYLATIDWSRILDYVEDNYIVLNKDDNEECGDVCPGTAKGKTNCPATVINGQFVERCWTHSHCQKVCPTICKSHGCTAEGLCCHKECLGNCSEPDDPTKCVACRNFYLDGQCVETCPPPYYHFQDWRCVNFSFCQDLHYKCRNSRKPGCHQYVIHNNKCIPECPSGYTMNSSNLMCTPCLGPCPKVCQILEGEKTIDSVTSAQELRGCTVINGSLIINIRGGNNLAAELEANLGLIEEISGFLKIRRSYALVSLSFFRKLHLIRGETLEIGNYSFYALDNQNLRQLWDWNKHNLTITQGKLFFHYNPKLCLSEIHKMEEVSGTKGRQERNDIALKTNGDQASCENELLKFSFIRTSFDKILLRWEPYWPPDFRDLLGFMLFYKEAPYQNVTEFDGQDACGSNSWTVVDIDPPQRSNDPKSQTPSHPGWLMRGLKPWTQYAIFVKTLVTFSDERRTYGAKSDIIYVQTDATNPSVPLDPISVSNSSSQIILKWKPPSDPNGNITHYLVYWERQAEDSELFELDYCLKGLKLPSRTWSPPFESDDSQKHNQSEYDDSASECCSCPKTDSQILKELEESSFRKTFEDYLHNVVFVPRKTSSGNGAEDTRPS
# T1 sequence (P15127 764-1383 partner limits assumed): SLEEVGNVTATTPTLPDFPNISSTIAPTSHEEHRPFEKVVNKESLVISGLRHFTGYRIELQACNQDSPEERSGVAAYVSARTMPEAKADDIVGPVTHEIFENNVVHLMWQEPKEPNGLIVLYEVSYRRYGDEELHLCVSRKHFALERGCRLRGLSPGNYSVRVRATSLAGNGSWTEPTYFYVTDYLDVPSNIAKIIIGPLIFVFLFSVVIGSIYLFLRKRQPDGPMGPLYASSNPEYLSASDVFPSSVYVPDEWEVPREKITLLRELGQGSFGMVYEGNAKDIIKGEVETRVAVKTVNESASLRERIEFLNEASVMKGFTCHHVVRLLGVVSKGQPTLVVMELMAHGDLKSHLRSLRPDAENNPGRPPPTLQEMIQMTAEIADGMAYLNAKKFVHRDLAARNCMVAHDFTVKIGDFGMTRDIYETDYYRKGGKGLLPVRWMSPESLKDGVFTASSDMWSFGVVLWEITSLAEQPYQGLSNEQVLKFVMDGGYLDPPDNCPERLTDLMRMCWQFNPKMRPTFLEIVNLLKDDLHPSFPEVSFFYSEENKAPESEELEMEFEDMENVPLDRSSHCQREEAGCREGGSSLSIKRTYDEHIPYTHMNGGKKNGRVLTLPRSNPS
# Experimental: To examine whether DHH105 binds to the insulin receptor and activates the insulin signal transduction pathway, [^125I]-insulin binding to adipocytes was measured in the presence of DHH105. Isolated adipocytes were incubated in KRH buffer for 1 h to remove residual insulin. Adipocytes were then washed three times and resuspended in KRH buffer. Adipocytes (2×10^5 cells/vial) were incubated with DHH105 or insulin in the presence of [^125I]-insulin (0.1 ng/ml; Perkin-Elmer Life and Analytical Sciences, Downers Grove, Ill.) for 2 h at 16° C. in a shaking bath. To measure non-specific binding, 50 μg of unlabelled insulin (Sigma) were added to cells along with [^125I]-insulin. After incubation, adipocytes were harvested by silicon oil and the radioactivity was measured.
# diabetic ob/ob mice = assay: Blood glucose and glucose tolerance test in diabetic ob/ob mice; format: in vivo, mouse
# Description: Male C57BL/6 and C57BL/6 ob/ob mice were purchased from The Jackson Laboratory (Bar Harbor, Me.), and Sprague-Dawley (SD) rats were purchased from Charles River Laboratories (Wilmington, Mass.). The animals were maintained and bred under specific pathogen-free conditions and provided with sterile food and water ad libitum at the Animal Resources Centre, Faculty of Medicine, University of Calgary. The use and care of the animals used in this study were approved by the Animal Care Committee, Faculty of Medicine, University of Calgary.
# DHH105 was dissolved in DMSO and emulsified in olive oil (1:50 v/v). […] Blood glucose levels were measured with a glucometer (One Touch Ultra, Lifescan, Milpitas, Calif.) every morning between 9:00–10:00 a.m. just before injection of DHH105.
# To determine whether treatment with DHH105 can decrease the blood glucose level in STZ-induced diabetic C57BL/6 mice (blood glucose levels>300 mg/dl), mice were treated with DHH105 (150 mg/kd) daily for 2 weeks. […] Blood glucose levels were measured at 0, 15, 30, 60, and 120 min after glucose injection.
# The blood glucose lowering effect was further determined in ob/ob mice, a model of type 2 diabetes. […]
# [3] = 500 μM, 4 h, 2-DOG 0.125 to 10.0 mM, Lineweaver-Burk
smiles,measurement,setting,value
"O=C(CCc1ccc(O)c(O)c1)OCc1cccc2ccccc12 [DHH105, 3,4-dihydroxyhydrocinnamic acid naphthalene methyl ester]",gross lesions of the liver,[1]; DHH105-treated mice,no gross lesions
same,"body weight, treated vs untreated mice",[1]; DHH105-treated vs untreated mice,no differences
same,effect on insulin-stimulated glucose transport,"[2]; 500 μM DHH105 3.5 h, then insulin 30 min",did not influence
same,"Km value, DHH105-treated vs control adipocytes","[2]; 500 μM, 4 h",no difference
same,Km,[2]; [3],1780 ± 380 µM
same,Vmax of glucose transport,[2]; [3],17.14±0.25 mmol/3 min
same,Vmax of glucose transport relative to untreated control adipocytes,"[2]; 500 μM, 4 h, Lineweaver-Burk",3 fold
same,incubation time from which 2-DOG uptake was increased,"[2]; rat adipocytes, 500 μM",1 h
same,increase of glucose transport vs untreated control at optimum concentration,"[2]; rat adipocytes, 4 h, DHH105 500 μM, glyburide 25 μM, metformin 250 μM, troglitazone 100 μM",4 fold
same,concentration at which 2-DOG uptake peaked,"[2]; rat adipocytes, 4 h treatment",500 µM
same,effect on glucose transport compared with other anti-diabetic drugs,"[2]; rat adipocytes, doses of 500 μM or more",significantly higher effect
same,amount of Akt/PKB protein,Akt/PKB,did not change
same,phosphorylated Akt/PKB,Akt/PKB; vs untreated control,significantly increased
same,"binding of [125I]-insulin to adipocytes, DHH105 together with insulin",insulin receptor; 500 μM DHH105 plus insulin,further inhibited
same,binding of [125I]-insulin to adipocytes,insulin receptor; 16° C.,inhibited
same,time after first injection at which blood glucose levels began to decrease,diabetic ob/ob mice; 150 mg/kg i.p. daily,4 days
same,blood glucose levels vs vehicle-treated control mice,diabetic ob/ob mice; 150 mg/kg i.p. daily for 2 weeks,significantly lower
